The values that follow come from patent publication US8569302B2, “Inhibitors of flaviviridae viruses” (Gilead Sciences, Inc., priority 2009, dated 2013).

In this test the test system is human hepatoma Huh-7 cell line harboring a HCV replicon. Nature of the test: HCV replicon assay (inhibition of viral replication, luciferase readout). It counts as cell-based. The following applies: Hepatitis C virus, 72 h, Huh-7 HCV replicon cells, 3 days incubation. The method, boiled down: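 Huh-7 replicon cells were exposed to 10-point 3-fold compound dilutions (0.44% DMSO) for 3 days at 37 °C. Replicon replication was read by Dual-Glo luciferase, with background from protease-inhibitor wells subtracted, and viability by calcein AM. EC50/CC50 came from a Hill-equation fit versus DMSO controls.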
As for `C[C@@H](CCOc1ncccn1)N(c1cc(C#CC(C)(C)C)sc1C(=O)O)C(=O)[C@H]1CC[C@H](C)CC1` [Compound 59], the inhibition (commonly how much of the control response was suppressed) at 2 µM stood at 99.9%.
Under `CC(C)(C)C#Cc1cc(N(C(=O)[C@H]2CC[C@H](C)CC2)[C@H]2CC[C@H](O[C@@H]3CCOC3)CC2)c(C(=O)O)s1` [Compound 322] stands 100%; under `CC1=CCC(C(=O)N(c2cc(C#CC(C)(C)C)sc2C(=O)O)[C@H]2CC[C@H](O[C@H]3CCOC3)CC2)[C@H](C)C1` (single isomer, unassigned) [Compound 303], 99.9%.
Under `CC1CCC(C(=O)N(c2cc(C#CC(C)(C)C)sc2C(=O)O)[C@H]2CC[C@H](Oc3ccnc4ccccc34)CC2)CC1` (stereo partly shown) [Compound 25, 5-(3,3-Dimethyl-but-1-ynyl)-3-{(4-methyl-cyclohexanecarbonyl)-[4-(quinolin-4-yloxy)-cyclohexyl]-amino}-thiophene-2-carboxylic acid] stands 99.3%; under `CC(C)(C)C#Cc1cc(N(C(=O)[C@H]2CC[C@H](C)CC2)[C@H]2C[C@@H](Oc3ncccn3)C2)c(C(=O)O)s1` [Compound 22, 5-(3,3-Dimethyl-but-1-ynyl)-3-{(trans-4-methyl-cyclohexanecarbonyl)-[cis-3-(pyrimidin-2-yloxy)-cyclobutyl]-amino}-thiophene-2-carboxylic acid], 96.2%; under `Cc1cccnc1O[C@H]1CC[C@H](N(c2cc(C#CC(C)(C)C)sc2C(=O)O)C(=O)[C@H]2CC[C@H](C)CC2)CC1` [Compound 12, 5-(3,3-Dimethyl-but-1-ynyl)-3-{(trans-4-methyl-cyclohexanecarbonyl)-[trans-4-(3-methyl-pyridin-2-yloxy)-cyclohexyl]-amino}-thiophene-2-carboxylic acid], 99.7%.
The same measure for `CC(C)(C)C#Cc1cc(N(C(=O)[C@H]2CC[C@H](C)CC2)[C@H]2CC[C@H](Sc3nncs3)CC2)c(C(=O)O)s1` [Compound 86, 3-(N-(4-(1,3,4-Thiadiazol-2-ylthio)cyclohexyl)-4-methylcyclohexanecarboxamido)-5-(3,3-dimethylbut-1-ynyl)thiophene-2-carboxylic acid]: 100%; for `CC(C)(C)C#Cc1cc(N(C(=O)[C@H]2CC[C@H](C)CC2)[C@H]2CC[C@H](Sc3cccs3)CC2)c(C(=O)O)s1` [Compound 93, 5-(3,3-Dimethylbut-1-ynyl)-3-(4-methyl-N-(4-(thiophen-2-ylthio)cyclohexyl)cyclohexanecarboxamido)thiophene-2-carboxylic acid]: 98.1%; for `C=C1CCC(C(=O)N(c2cc(C#CC(C)(C)C)sc2C(=O)O)[C@H]2CC[C@H](Oc3cc(CN(C)C)ccn3)CC2)CC1` [Compound 325, 3-[[4-(4-dimethylaminomethyl-pyridin-2-yloxy)-cyclohexyl]-(4-methylene-cyclohexanecarbonyl)-amino]-5-(3,3-dimethyl-but-1-ynyl)-thiophene-2-carboxylic acid]: 100%.
Take `CC(C)(C)C#Cc1cc(N(C(=O)[C@H]2CC[C@H](C)CC2)C2CCN(S(=O)(=O)c3cccs3)CC2)c(C(=O)O)s1` [Compound 207, 5-(3,3-Dimethyl-but-1-ynyl)-3-{(4-methyl-cyclohexanecarbonyl)-[1-(thiophene-2-sulfonyl)-piperidin-4-yl]-amino}-thiophene-2-carboxylic acid]: 2 µM produced 99.8% inhibition.
The same measure for `CC(C)(C)C#Cc1cc(N(C(=O)[C@H]2CC[C@H](C)CC2)[C@H]2CC[C@H](OC3CCNCC3)CC2)c(C(=O)O)s1` [Compound 223, 5-(3,3-dimethylbut-1-ynyl)-3-(4-methyl-N-(4-(piperidin-4-yloxy)cyclohexyl)cyclohexanecarboxamido)thiophene-2-carboxylic acid]: 100%; for `CC1CCC(C(=O)N(c2cc(C#CC(C)(C)COC3CCCCO3)sc2C(=O)O)C2CCC(Oc3ccccn3)CC2)CC1` (stereo not shown) [Compound 311, 5-[3,3-Dimethyl-4-(tetrahydro-pyran-2-yloxy)-but-1-ynyl]-3-{(4-methyl-cyclohexanecarbonyl)-[4-(pyridin-2-yloxy)-cyclohexyl]-amino}-thiophene-2-carboxylic acid]: 95.2%; for `CC(C)(C)C#Cc1cc(N(C(=O)[C@H]2CC[C@H](C)CC2)C2CCN(S(=O)(=O)c3ccsc3)CC2)c(C(=O)O)s1` [Compound 205, 5-(3,3-Dimethyl-but-1-ynyl)-3-{(4-methyl-cyclohexanecarbonyl)-[1-(thiophene-3-sulfonyl)-piperidin-4-yl]-amino}-thiophene-2-carboxylic acid]: 99.9%.
